From paper PMC5218480 (PLoS ONE, 2017)

Tested on: MV-4-11 cells
Test: Gene expression microarray analysis (Affymetrix PrimeView) and GSEA
Assay type: cell-based, human
Design: RFU PODN (11730768_x_at) / Fold change /veh PODN (11730768_x_at) / RFU LINC00158 (11744669_a_at) / Fold change /veh LINC00158 (11744669_a_at) / RFU DUSP10 (11751237_a_at) / Fold change /veh DUSP10 (11751237_a_at) / RFU ID3 (11757404_x_at) / Fold change /veh ID3 (11757404_x_at) / RFU PLEKHG5 (11737974_s_at) / Fold change /veh PLEKHG5 (11737974_s_at) / RFU LRRC4B (11730491_at) / Fold change /veh LRRC4B (11730491_at) / RFU GIMAP4 (11747438_a_at) / Fold change /veh GIMAP4 (11747438_a_at) / RFU KRT8 (11758183_x_at) / Fold change /veh KRT8 (11758183_x_at) / RFU CNN1 (11734310_a_at) / Fold change /veh CNN1 (11734310_a_at) / RFU VPS37D (11726825_at) / Fold change /veh VPS37D (11726825_at) / RFU C10orf10 (11716522_x_at) / Fold change /veh C10orf10 (11716522_x_at) / RFU KIR2DL2 /// KIR2DL4 /// KIR2DL5A /// KIR2DL5B /// KIR2DS1 /// KIR2DS2 /// KIR2DS3 /// KIR2DS4 /// KIR3DL3 /// KIR3DL3 /// KIR3DS1 (11738374_at) / Fold change /veh KIR2DL2 /// KIR2DL4 /// KIR2DL5A /// KIR2DL5B /// KIR2DS1 /// KIR2DS2 /// KIR2DS3 /// KIR2DS4 /// KIR3DL3 /// KIR3DL3 /// KIR3DS1 (11738374_at) / RFU C1QL1 (11718748_at) / Fold change /veh C1QL1 (11718748_at) / RFU TMPRSS4 (11747572_a_at) / Fold change /veh TMPRSS4 (11747572_a_at) / RFU HAMP (11756126_x_at) / Fold change /veh HAMP (11756126_x_at) / RFU RNFT2 (11725882_a_at) / Fold change /veh RNFT2 (11725882_a_at) / RFU NR4A2 (11747474_a_at) / Fold change /veh NR4A2 (11747474_a_at) / RFU ABCC12 (11746883_a_at) / Fold change /veh ABCC12 (11746883_a_at) / RFU TMEM136 (11760407_x_at) / Fold change /veh TMEM136 (11760407_x_at) / RFU CLDN22 /// WWC2 (11732394_at) / Fold change /veh CLDN22 /// WWC2 (11732394_at) / RFU HLA-DPB1 (11760878_x_at) / Fold change /veh HLA-DPB1 (11760878_x_at) / RFU SPINT1 (11716480_a_at) / Fold change /veh SPINT1 (11716480_a_at) / RFU GAP43 (11754022_s_at) / Fold change /veh GAP43 (11754022_s_at) / RFU A4GNT (11735810_at) / Fold change /veh A4GNT (11735810_at) / RFU PRB3 (11715151_x_at) / Fold change /veh PRB3 (11715151_x_at) / RFU TUBB4B (11761932_at) / Fold change /veh TUBB4B (11761932_at) / RFU CAPN14 (11732068_a_at) / Fold change /veh CAPN14 (11732068_a_at) / RFU TMCC2 (11721928_a_at) / Fold change /veh TMCC2 (11721928_a_at) / RFU IRGQ (11745062_a_at) / Fold change /veh IRGQ (11745062_a_at) / RFU FAM174B (11720279_a_at) / Fold change /veh FAM174B (11720279_a_at) / RFU TMPRSS4 (11748680_a_at) / Fold change /veh TMPRSS4 (11748680_a_at) / RFU FAM212B (11763350_a_at) / Fold change /veh FAM212B (11763350_a_at) / RFU PLEKHG5 (11743358_a_at) / Fold change /veh PLEKHG5 (11743358_a_at) / RFU ZSCAN30 (11745921_a_at) / Fold change /veh ZSCAN30 (11745921_a_at) / RFU CMKLR1 (11741424_a_at) / Fold change /veh CMKLR1 (11741424_a_at) / RFU LOC101060620 /// MAPK8IP1 (11723275_at) / Fold change /veh LOC101060620 /// MAPK8IP1 (11723275_at) / RFU SPTSSB (11747773_x_at) / Fold change /veh SPTSSB (11747773_x_at) / RFU PRSS12 (11739890_at) / Fold change /veh PRSS12 (11739890_at) / RFU BIN1 (11741810_x_at) / Fold change /veh BIN1 (11741810_x_at) / RFU WNT11 (11732464_a_at) / Fold change /veh WNT11 (11732464_a_at) / RFU C10orf10 (11716521_a_at) / Fold change /veh C10orf10 (11716521_a_at) / RFU C5orf56 (11738089_at) / Fold change /veh C5orf56 (11738089_at) / RFU CYB561 (11721691_x_at) / Fold change /veh CYB561 (11721691_x_at) / RFU ANKRD19P (11752326_a_at) / Fold change /veh ANKRD19P (11752326_a_at) / RFU OR2T12 /// OR2T33 /// OR2T8 (11738714_s_at) / Fold change /veh OR2T12 /// OR2T33 /// OR2T8 (11738714_s_at) / RFU VCAN (11748164_a_at) / Fold change /veh VCAN (11748164_a_at) / RFU JSRP1 (11732532_at) / Fold change /veh JSRP1 (11732532_at) / RFU KRTAP10-11 (11738290_x_at) / Fold change /veh KRTAP10-11 (11738290_x_at) / RFU MYO3A (11730013_a_at) / Fold change /veh MYO3A (11730013_a_at) / RFU EBF3 (11725865_a_at) / Fold change /veh EBF3 (11725865_a_at) / RFU CAMK2N1 (11719241_x_at) / Fold change /veh CAMK2N1 (11719241_x_at) / RFU C5orf56 (11738088_a_at) / Fold change /veh C5orf56 (11738088_a_at) / RFU OLFML3 (11715873_a_at) / Fold change /veh OLFML3 (11715873_a_at) / RFU LOC100653217 /// NTM (11731650_a_at) / Fold change /veh LOC100653217 /// NTM (11731650_a_at) / RFU MAPK11 (11762145_a_at) / Fold change /veh MAPK11 (11762145_a_at) / RFU FIZ1 (11724087_x_at) / Fold change /veh FIZ1 (11724087_x_at) / RFU OASL (11726364_x_at) / Fold change /veh OASL (11726364_x_at) / RFU SOX15 (11748057_x_at) / Fold change /veh SOX15 (11748057_x_at) / RFU CD79A (11719716_a_at) / Fold change /veh CD79A (11719716_a_at) / RFU HIST1H1D (11736915_at) / Fold change /veh HIST1H1D (11736915_at) / RFU CASKIN2 (11723855_a_at) / Fold change /veh CASKIN2 (11723855_a_at) / RFU LOC730098 (11760151_x_at) / Fold change /veh LOC730098 (11760151_x_at) / RFU OR4N2 (11742367_at) / Fold change /veh OR4N2 (11742367_at) / RFU PRRT2 (11749266_a_at) / Fold change /veh PRRT2 (11749266_a_at) / RFU SNX32 (11753110_a_at) / Fold change /veh SNX32 (11753110_a_at) / RFU CDHR5 (11726645_a_at) / Fold change /veh CDHR5 (11726645_a_at) / RFU RCAN1 (11760418_a_at) / Fold change /veh RCAN1 (11760418_a_at) / RFU FAM167A (11723789_a_at) / Fold change /veh FAM167A (11723789_a_at) / RFU FAM26E (11764081_at) / Fold change /veh FAM26E (11764081_at) / RFU ISYNA1 (11749810_s_at) / Fold change /veh ISYNA1 (11749810_s_at) / RFU ACY1 (11761880_at) / Fold change /veh ACY1 (11761880_at) / RFU 11764098_at / Fold change /veh 11764098_at / RFU SAMD14 (11745864_x_at) / Fold change /veh SAMD14 (11745864_x_at) / RFU NPB (11741838_a_at) / Fold change /veh NPB (11741838_a_at) / RFU TMPRSS6 (11731388_a_at) / Fold change /veh TMPRSS6 (11731388_a_at) / RFU KRTAP10-2 (11738614_at) / Fold change /veh KRTAP10-2 (11738614_at) / RFU ARHGAP8 /// PRR5-ARHGAP8 (11727945_x_at) / Fold change /veh ARHGAP8 /// PRR5-ARHGAP8 (11727945_x_at) / RFU KRTAP5-7 /// NADSYN1 (11734609_at) / Fold change /veh KRTAP5-7 /// NADSYN1 (11734609_at) / RFU RASL12 (11751679_a_at) / Fold change /veh RASL12 (11751679_a_at) / RFU CDKN2B (11736163_a_at) / Fold change /veh CDKN2B (11736163_a_at) / RFU PRF1 (11729649_at) / Fold change /veh PRF1 (11729649_at) / RFU, ZNF638 /// ZNF638-IT1 / Fold change vs veh, ZNF638 /// ZNF638-IT1 / RFU, PANK3 / Fold change vs veh, PANK3 / RFU, SH3YL1 / Fold change vs veh, SH3YL1 / RFU, ZEB2 / Fold change vs veh, ZEB2 / RFU, NRIP1 / Fold change vs veh, NRIP1 / RFU, PTTG1IP / Fold change vs veh, PTTG1IP / RFU, CAPN2 / Fold change vs veh, CAPN2 / RFU, MED14 / Fold change vs veh, MED14 / RFU, SNORA58 / Fold change vs veh, SNORA58 / RFU, C1orf63 / Fold change vs veh, C1orf63 / RFU, LRRFIP1 / Fold change vs veh, LRRFIP1 / RFU, NDUFAF7 / Fold change vs veh, NDUFAF7 / RFU, SLC12A2 / Fold change vs veh, SLC12A2 / RFU, IBTK / Fold change vs veh, IBTK / RFU, ESF1 / Fold change vs veh, ESF1 / Fold change vs veh, TMEM50B / RFU, TAOK1 / Fold change vs veh, TAOK1 / RFU, ACBD3 / Fold change vs veh, ACBD3 / RFU, TMA16 / Fold change vs veh, TMA16 / RFU, RWDD3 / Fold change vs veh, RWDD3 / RFU, BCAT1 / Fold change vs veh, BCAT1 / RFU, EDEM3 / Fold change vs veh, EDEM3 / RFU, TMEM33 / Fold change vs veh, TMEM33 / RFU, WDR75 / Fold change vs veh, WDR75 / RFU, AHCTF1 / Fold change vs veh, AHCTF1 / RFU, TFRC / Fold change vs veh, TFRC / RFU, ZDHHC17 / Fold change vs veh, ZDHHC17 / RFU, NOM1 / Fold change vs veh, NOM1 / RFU, ARL8B / Fold change vs veh, ARL8B / RFU, ZBTB11 / Fold change vs veh, ZBTB11 / RFU, TAMM41 / Fold change vs veh, TAMM41 / RFU, KIAA1704 /// LOC100996395 / Fold change vs veh, KIAA1704 /// LOC100996395 / RFU, ING1 / Fold change vs veh, ING1 / RFU, TRMT61B / Fold change vs veh, TRMT61B / RFU, FUBP3 / Fold change vs veh, FUBP3 / RFU, TP53 / Fold change vs veh, TP53 / RFU, TNKS2 / Fold change vs veh, TNKS2 / RFU, ZFP14 / Fold change vs veh, ZFP14 / RFU, ACTR2 / Fold change vs veh, ACTR2 / RFU, PPP3R1 / Fold change vs veh, PPP3R1 / RFU, PIK3R1 / Fold change vs veh, PIK3R1 / RFU, HNRNPA1 / Fold change vs veh, HNRNPA1 / RFU, RNF170 / Fold change vs veh, RNF170 / RFU, ZNF28 / Fold change vs veh, ZNF28 / RFU, RNGTT / Fold change vs veh, RNGTT / RFU, OGT / Fold change vs veh, OGT / RFU, BRD1 / Fold change vs veh, BRD1 / RFU, MARS / Fold change vs veh, MARS / RFU, ZNF655 / Fold change vs veh, ZNF655 / RFU, FAHD1 / Fold change vs veh, FAHD1 / RFU, BDP1 / Fold change vs veh, BDP1 / RFU, LRRCC1 / Fold change vs veh, LRRCC1 / RFU, ARID1A / Fold change vs veh, ARID1A / RFU, ZNF146 / Fold change vs veh, ZNF146 / RFU, ZNF330 / Fold change vs veh, ZNF330 / RFU, GPN3 / Fold change vs veh, GPN3 / RFU, C9orf123 / Fold change vs veh, C9orf123 / RFU, N4BP2L2 / Fold change vs veh, N4BP2L2 / RFU, ARFIP1 / Fold change vs veh, ARFIP1 / RFU, FAM179B / Fold change vs veh, FAM179B / RFU, BCL10 / Fold change vs veh, BCL10 / RFU, UHRF1BP1L / Fold change vs veh, UHRF1BP1L / RFU, BET1 / Fold change vs veh, BET1 / RFU, CNOT2 / Fold change vs veh, CNOT2 / RFU, ZNF268 / Fold change vs veh, ZNF268 / Fold change vs veh, ZNF507 / RFU, DGCR2 / Fold change vs veh, DGCR2 / RFU, WDSUB1 / Fold change vs veh, WDSUB1 / Fold change vs veh, HSP90B1 /// MIR3652 / RFU, ADSS / Fold change vs veh, ADSS / RFU, GK / Fold change vs veh, GK / RFU, ZNF148 / Fold change vs veh, ZNF148 / RFU, TAF9 / Fold change vs veh, TAF9 / RFU, SLC1A5 / Fold change vs veh, SLC1A5 / RFU, SLMO2 / Fold change vs veh, SLMO2 / RFU, ABCC4 / Fold change vs veh, ABCC4 / RFU, LOC101060439 /// RAP1B / Fold change vs veh, LOC101060439 /// RAP1B / RFU, RFX7 / Fold change vs veh, RFX7 / RFU, GTPBP10 / Fold change vs veh, GTPBP10 / RFU, CNEP1R1 / Fold change vs veh, CNEP1R1 / RFU, BIVM-ERCC5 /// ERCC5 / Fold change vs veh, BIVM-ERCC5 /// ERCC5 / RFU, ILF3 / Fold change vs veh, ILF3 / RFU 11762660_at / Fold change /veh 11762660_at / RFU VCAN (11757783_s_at) / Fold change /veh VCAN (11757783_s_at) / RFU DDX43 (11728927_at) / Fold change /veh DDX43 (11728927_at) / RFU KRT8 (11758188_x_at) / Fold change /veh KRT8 (11758188_x_at) / RFU NKD1 (11759106_at) / Fold change /veh NKD1 (11759106_at) / RFU SRD5A1 (11742802_a_at) / Fold change /veh SRD5A1 (11742802_a_at) / RFU TPSAB1 /// TPSB2 (11721975_s_at) / Fold change /veh TPSAB1 /// TPSB2 (11721975_s_at) / RFU GSTM3 (11746129_a_at) / Fold change /veh GSTM3 (11746129_a_at) / RFU IL23R (11737362_x_at) / Fold change /veh IL23R (11737362_x_at) / RFU TMEM51 (11727254_a_at) / Fold change /veh TMEM51 (11727254_a_at) / RFU PIWIL2 (11732686_x_at) / Fold change /veh PIWIL2 (11732686_x_at) / RFU ORM1 (11744905_x_at) / Fold change /veh ORM1 (11744905_x_at) / RFU CCDC152 (11743942_at) / Fold change /veh CCDC152 (11743942_at) / RFU ECM1 (11717891_a_at) / Fold change /veh ECM1 (11717891_a_at) / RFU IL23R (11748794_a_at) / Fold change /veh IL23R (11748794_a_at) / RFU TNFAIP8L3 (11732012_x_at) / Fold change /veh TNFAIP8L3 (11732012_x_at) / RFU MBOAT4 (11741988_at) / Fold change /veh MBOAT4 (11741988_at) / RFU 11764193_at / Fold change /veh 11764193_at / RFU TMEM53 (11763286_at) / Fold change /veh TMEM53 (11763286_at) / RFU MAGEB2 (11727129_at) / Fold change /veh MAGEB2 (11727129_at) / RFU TMEM200A (11744735_a_at) / Fold change /veh TMEM200A (11744735_a_at) / RFU CCDC152 (11751479_a_at) / Fold change /veh CCDC152 (11751479_a_at) / RFU FAM211A (11726209_a_at) / Fold change /veh FAM211A (11726209_a_at) / RFU RGS16 (11746705_a_at) / Fold change /veh RGS16 (11746705_a_at) / RFU VCAN (11755009_s_at) / Fold change /veh VCAN (11755009_s_at) / RFU RHOB (11743442_s_at) / Fold change /veh RHOB (11743442_s_at) / RFU RGS16 (11720943_a_at) / Fold change /veh RGS16 (11720943_a_at) / RFU RGS16 (11720944_at) / Fold change /veh RGS16 (11720944_at) / RFU, VPS4B / Fold change vs veh, VPS4B / RFU, CREB1 / Fold change vs veh, CREB1 / RFU, DNAJC13 / Fold change vs veh, DNAJC13 / RFU, GNAQ / Fold change vs veh, GNAQ / RFU, CDK5R1 / Fold change vs veh, CDK5R1 / RFU, ZRANB3 / Fold change vs veh, ZRANB3 / RFU, CUL4A / Fold change vs veh, CUL4A / RFU, CCNY / Fold change vs veh, CCNY / RFU, UFL1 / Fold change vs veh, UFL1 / RFU, COG3 / Fold change vs veh, COG3 / RFU, DIAPH2 / Fold change vs veh, DIAPH2 / RFU, SKA2 / Fold change vs veh, SKA2 / RFU, AFF3 / Fold change vs veh, AFF3 / RFU, LMF1 / Fold change vs veh, LMF1 / RFU, IPO11 / Fold change vs veh, IPO11 / RFU, DFFB / Fold change vs veh, DFFB / RFU, FOXP1 / Fold change vs veh, FOXP1 / RFU, CARD8 / Fold change vs veh, CARD8 / RFU, STRN3 / Fold change vs veh, STRN3 / RFU, ADK / Fold change vs veh, ADK / RFU, RASSF2 / Fold change vs veh, RASSF2 / RFU, WIPF1 / Fold change vs veh, WIPF1 / RFU, LARP1B / Fold change vs veh, LARP1B / RFU, RASA1 / Fold change vs veh, RASA1 / RFU, RB1 / Fold change vs veh, RB1 / RFU, PPFIA1 / Fold change vs veh, PPFIA1 / RFU, MAT2A / Fold change vs veh, MAT2A / RFU, CCT5 / Fold change vs veh, CCT5 / RFU, WDR92 / Fold change vs veh, WDR92 / RFU, CUX1 / Fold change vs veh, CUX1 / RFU, TTC7A / Fold change vs veh, TTC7A / RFU, TMEM135 / Fold change vs veh, TMEM135 / RFU, DEPTOR / Fold change vs veh, DEPTOR / RFU, CPM / Fold change vs veh, CPM / RFU, DNAJB6 / Fold change vs veh, DNAJB6 / RFU, CACNA2D3 / Fold change vs veh, CACNA2D3 / RFU, DTX4 / Fold change vs veh, DTX4 / RFU, TFCP2 / Fold change vs veh, TFCP2 / RFU, GMCL1 /// GMCL1P1 / Fold change vs veh, GMCL1 /// GMCL1P1 / RFU, AEBP2 / Fold change vs veh, AEBP2 / RFU, SNHG1 /// SNORD22 /// SNORD25 /// SNORD26 /// SNORD27 /// SNORD28 /// SNORD29 /// SNORD31 / Fold change vs veh, SNHG1 /// SNORD22 /// SNORD25 /// SNORD26 /// SNORD27 /// SNORD28 /// SNORD29 /// SNORD31 / Fold change (Aza/veh), C12orf56 (ProbeSet 11735607_a_at) / Fold change (ACY-1035/veh), C12orf56 (ProbeSet 11735607_a_at) / Fold change (Aza/veh), FGFR1OP (ProbeSet 11751329_s_at) / Fold change (ACY-1035/veh), FGFR1OP (ProbeSet 11751329_s_at) / Fold change (Aza/veh), VPS36 (ProbeSet 11739960_a_at) / Fold change (ACY-1035/veh), VPS36 (ProbeSet 11739960_a_at) / RFU SYPL1 (11715823_x_at) / Fold change /veh SYPL1 (11715823_x_at) / RFU IGFBP7 (11715501_s_at) / Fold change /veh IGFBP7 (11715501_s_at) / RFU REEP3 (11722064_at) / Fold change /veh REEP3 (11722064_at) / RFU IGLL1 (11728026_x_at) / Fold change /veh IGLL1 (11728026_x_at): dose or concentration left out as unconfirmed
Details: MV-4-11 cells, 48 hours

Structure (SMILES): Nc1ccc(-c2cccs2)cc1NC(=O)c1ccc2c(c1)cc(C1CC1)n2CCN1CCOCC1 [ACY-1035]
- Fold change /veh ECM1 (11717891_a_at): 0.95
